Patent US10829520B2, “Beta-hairpin peptidomimetics” (POLYPHOR AG, priority 2015, dated 2020)
Where a SMILES comes first, the peptide text is derived from it. Bridges are numbered along the chain shown (N, C = ends). Roman numbers before positions name the chains, in order. [ ]: non-standard residue; d: D form. aThr = C[C@H](O)[C@H](N)C(=O)O; NMeDab = CN[C@@H](CCN)C(=O)O; Tle = CC(C)(C)[C@H](N)C(=O)O; dDab = NCC[C@@H](N)C(=O)O; Nle = CCCC[C@H](N)C(=O)O; Orn = NCCC[C@H](N)C(=O)O; Dab = NCC[C@H](N)C(=O)O

Columns and labels:
Type in all cases: cell-based
[1] = system: human red blood cells (hRBC); test: Hemolysis of human red blood cells; conditions: red cells of human, 1 h
Method in brief: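 Fresh human red blood cells are washed in PBS, then shaken with peptide (100 μg/mL) at 37° C. for 1 h, final erythrocyte density about 0.9×10^9 cells/mL. After centrifugation, diluted supernatants are read at 540 nm against buffer (0%) and Triton X-100 (100%) lysis controls.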

[2] = system: Klebsiella pneumoniae SSI #3010; conditions: SSI #3010
Method in brief: (§1)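 MIC in μg/mL; CLSI microdilution; cation-adjusted Mueller-Hinton II with Polysorbate 80 (0.002%); 10^6 CFU/mL; 35° C, 18-20 h.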

[3] = system: Acinetobacter baumannii DSM 30008; conditions: DSM 30008
Method in brief: as §1

[4] = system: Klebsiella pneumoniae 968733; conditions: 968733
[5] = system: Escherichia coli ATCC 25922; conditions: ATCC 25922
Method in brief: as §1

Escherichia coli 926415 = conditions: 926415
[6] = system: Acinetobacter baumannii 872842; conditions: 872842
[7] = system: Pseudomonas aeruginosa ATCC 27853; conditions: ATCC 27853
Method in brief: as §1

Row | Compound | Hemolysis at 100 μg/mL ([1]; 100 μg/mL) [%] | Klebsiella pneumoniae SSI #3010 MIC [2] [µg/mL] | Acinetobacter baumannii DSM 30008 MIC [3] [µg/mL] | Klebsiella pneumoniae 968733 MIC [4] [µg/mL] | Escherichia coli ATCC 25922 MIC [5] [µg/mL] | Escherichia coli 926415 MIC (Escherichia coli 926415) [µg/mL] | Acinetobacter baumannii 872842 MIC [6] [µg/mL] | Pseudomonas aeruginosa ATCC 27853 MIC [7] [µg/mL] | Hemolysis at 100 μg/mL [1]; 100 [%]
1 | CCCC[C@@H]1NC(=O)[C@@H]2CCCN2C(=O)[C@H]2CCCN2C(=O)[C@H](CO)NC(=O)[C@H](CO)NC(=O)[C@H](C(C)(C)C)NC(=O)[C@H](CCN)NC(=O)[C@H](Cc2c[nH]c3ccccc23)NC(=O)[C@@H](N)CSSC[C@@H](C(=O)N[C@@H](Cc2ccc(O)cc2)C(=O)N[C@H](CCN)C(=O)N[C@H]2CCNC(=O)[C@H]([C@@H](C)O)NC(=O)[C@H](CCN)NC(=O)[C@H](CCN)NC(=O)[C@H](CC(C)C)NC(=O)[C@@H](Cc3ccccc3)NC(=O)[C@H](CCN)NC2=O)NC(=O)[C@H](CCCN)NC(=O)[C@H](CCN)NC(=O)[C@H](Cc2ccc(O)cc2)NC(=O)[C@H](CO)NC1=O [Ex. 201] (H-CW[Dab][Tle]SS[dP]P[Nle]SY[Dab][Orn]CY[dDab][Dab][Dab][dF]L[Dab][Dab]T; disulfide 1-14; lactam 17-C) | <1 | 1 | 1 | 8 | 0.25 | 0.5 | 0.5 | 1 | 
2 | CCCC[C@@H]1NC(=O)[C@@H]2CCCN2C(=O)[C@@H](CCN)NC(=O)[C@H](CO)NC(=O)[C@H](C)NC(=O)[C@H](C(C)(C)C)NC(=O)[C@@H](NC(=O)[C@H](Cc2c[nH]c3ccccc23)NC(C)=O)CSSC[C@@H](C(=O)N[C@@H](CCCN)C(=O)N[C@@H](CCN)C(=O)N[C@H]2CCNC(=O)[C@H]([C@@H](C)O)NC(=O)[C@H](CCN)NC(=O)[C@H](CCN)NC(=O)[C@H](CC(C)C)NC(=O)[C@@H](Cc3ccccc3)NC(=O)[C@H](CCN)NC2=O)NC(=O)[C@H](Cc2ccc(O)cc2)NC(=O)[C@H](CO)NC1=O [Ex. 53] (Ac-WC[Tle]AS[dDab]P[Nle]SYC[Orn][Dab][Dab][Dab][dF]L[Dab][Dab]T; disulfide 2-11; lactam 14-C) | 1 | 0.5 | 0.25 | 8 | 0.25 | 1 | 2 | 2 | 
3 | CCCC[C@@H]1NC(=O)[C@@H]2CCCN2C(=O)[C@H]2CCCN2C(=O)[C@H](CO)NC(=O)[C@H](C)NC(=O)[C@H](C(C)(C)C)NC(=O)[C@H](CCN)NC(=O)[C@H](Cc2c[nH]c3ccccc23)NC(=O)[C@H](CCN)NC(=O)[C@@H](CCN)NC(=O)[C@H](CC(=O)N(C)[C@@H](CCN)C(=O)N[C@H]2CCNC(=O)[C@H]([C@@H](C)O)NC(=O)[C@H](CCN)NC(=O)[C@H](CCN)NC(=O)[C@H](CC(C)C)NC(=O)[C@@H](Cc3ccccc3)NC(=O)[C@H](CCN)NC2=O)NC(=O)[C@H](CCN)NC(=O)[C@H](Cc2ccc(O)cc2)NC(=O)[C@H](CO)NC1=O [Ex. 69] (I: cyclo([Nle]SY[Dab]D[dDab][Dab]W[Dab][Tle]AS[dP]P) / II: [NMeDab][Dab][Dab][dF]L[Dab][Dab]T; amide I:5-II:N; lactam II:2-II:C) |  | 1 | 1 | 2 | 0.5 | 2 | 4 | 1 | 2
4 | CCCC[C@@H]1NC(=O)[C@@H]2CCCN2C(=O)[C@H]2CCCN2C(=O)[C@H](CO)NC(=O)[C@H](C)NC(=O)[C@H](C(C)(C)C)NC(=O)[C@@H](NC(=O)[C@H](Cc2c[nH]c3ccccc23)NC(C)=O)CSSC[C@@H](C(=O)N[C@@H](CCN)C(=O)N[C@H](C(=O)N[C@@H](CCN)C(=O)N[C@H]2CCNC(=O)[C@H]([C@@H](C)O)NC(=O)[C@H](CCN)NC(=O)[C@H](CCN)NC(=O)[C@H](CC(C)C)NC(=O)[C@@H](Cc3ccccc3)NC(=O)[C@H](CCN)NC2=O)[C@H](C)O)NC(=O)[C@H](Cc2ccc(O)cc2)NC(=O)[C@H](CO)NC1=O [Ex. 21] (Ac-WC[Tle]AS[dP]P[Nle]SYC[Dab][aThr][Dab][Dab][Dab][dF]L[Dab][Dab]T; disulfide 2-11; lactam 15-C) | <1 | 0.25 | 0.25 | 2 | 0.25 | 1 | 1 | 0.5 | 
5 | CC(=O)N[C@@H](Cc1c[nH]c2ccccc12)C(=O)N[C@H]1CSSC[C@@H](C(=O)N[C@@H](CCCN)C(=O)N[C@H](C(=O)N[C@@H](CCN)C(=O)N[C@@H](CCN)C(=O)N[C@H]2CCNC(=O)[C@H]([C@@H](C)O)NC(=O)[C@H](CCN)NC(=O)[C@H](CCN)NC(=O)[C@H](CC(C)C)NC(=O)[C@@H](Cc3ccccc3)NC(=O)[C@H](CCN)NC2=O)[C@@H](C)O)NC(=O)[C@H](Cc2ccc(O)cc2)NC(=O)[C@H](Cc2c[nH]cn2)NC(=O)[C@H](Cc2c[nH]c3ccccc23)NC(=O)[C@@H]2CCCN2C(=O)[C@H]2CCCN2C(=O)[C@H](CO)NC(=O)[C@H](C)NC(=O)[C@H](C(C)(C)C)NC1=O [Ex. 138] (Ac-WC[Tle]AS[dP]PWHYC[Orn]T[Dab][Dab][Dab][Dab][dF]L[Dab][Dab]T; disulfide 2-11; lactam 16-C) | 3 | 0.5 | 0.5 | 2 | 0.25 | 4 | 1 | 4 | 
6 | CCCC[C@@H]1NC(=O)[C@@H]2CCCN2C(=O)[C@H]2CCCN2C(=O)[C@H](CO)NC(=O)[C@H](C)NC(=O)[C@H](C(C)(C)C)NC(=O)[C@@H](NC(=O)[C@H](Cc2c[nH]c3ccccc23)NC(=O)[C@@H](N)CCN)CSSC[C@@H](C(=O)N[C@@H](CCN)C(=O)N[C@H](C(=O)N[C@@H](CCN)C(=O)N[C@H]2CCNC(=O)[C@H]([C@@H](C)O)NC(=O)[C@H](CCN)NC(=O)[C@H](CCN)NC(=O)[C@H](CC(C)C)NC(=O)[C@@H](Cc3ccccc3)NC(=O)[C@H](CCN)NC2=O)[C@@H](C)O)NC(=O)[C@H](Cc2ccc(O)cc2)NC(=O)[C@H](CO)NC1=O [Ex. 42] (H-[Dab]WC[Tle]AS[dP]P[Nle]SYC[Dab]T[Dab][Dab][Dab][dF]L[Dab][Dab]T; disulfide 3-12; lactam 16-C) | <1 | 0.25 | 0.25 | 2 | 0.125 | 0.25 | 0.25 | 0.25 | 
7 | CCCC[C@@H]1NC(=O)[C@@H]2CCCN2C(=O)[C@H]2CCCN2C(=O)[C@H](CO)NC(=O)[C@H](C)NC(=O)[C@H](C(C)(C)C)NC(=O)[C@H](CCN)NC(=O)[C@H](Cc2c[nH]c3ccccc23)NC(=O)[C@H](CCN)NC(=O)[C@@H](CCN)NC(=O)[C@H](CCC(=O)N[C@H](CCN)C(=O)N[C@H]2CCNC(=O)[C@H]([C@@H](C)O)NC(=O)[C@H](CCN)NC(=O)[C@H](CCN)NC(=O)[C@H](CC(C)C)NC(=O)[C@@H](Cc3ccccc3)NC(=O)[C@H](CCN)NC2=O)NC(=O)[C@H](CCN)NC(=O)[C@H](Cc2ccc(O)cc2)NC(=O)[C@H](CO)NC1=O [Ex. 65] (I: cyclo([Nle]SY[Dab]E[dDab][Dab]W[Dab][Tle]AS[dP]P) / II: [dDab][Dab][Dab][dF]L[Dab][Dab]T; amide I:5-II:N; lactam II:2-II:C) |  | 1 | 2 | 2 | 1 | 1 | 4 | 1 | <1
